These are literature values, as cited in paper PMC9769502 (Microbiology Spectrum, 2022).

The test system of data set [1] is Leishmania donovani intracellular amastigotes. The following applies: 50 μM miltefosine control; cited from earlier work. Here is the method: Transgenic L. donovani promastigotes constitutively expressing mCherry and THP-1 macrophages were cultured as described above. Metacyclic promastigotes were isolated using a Ficoll-400 density gradient as previously described ([70]). Differentiated macrophages were exposed to parasites for 4 h at a multiplicity of infection (MOI) of 10 parasites:1 macrophage. After 4 h, the macrophages were washed thoroughly with 1× phosphate-buffered saline (PBS) (pH 7.4) and incubated overnight at 37°C with 5% CO2. Macrophages were transferred to 96-well plates at 5 × 10^6 cells/mL and exposed to antimicrobi ...

Data set [2] concerns Leishmania donovani axenic amastigotes. The following applies: 50 μM miltefosine control; cited from earlier work. Here is the method: Axenic amastigotes were differentiated as described previously ([69]); briefly, transgenic L. donovani promastigotes expressing mCherry were differentiated by pH and temperature shifts. Amastigotes were seeded into 96-well plates at 5 × 10^6 cells/mL and incubated for 48 h in the presence of decreasing drug concentrations, starting at 20 μM, along with the appropriate solvent controls. Fluorescence was monitored (587-nm excitation/610-nm emission) over 48 h using a FlexStation 3 benchtop multimode reader (Molecular Devices). At 50 μM miltefosine, 99% parasite inhibition is observed. Thus, chan ...

Data set [3] relates to intracellular amastigotes. To be noted: previously shown; cited from earlier work. The source says:
As Leishmania spp. are obligate intracellular parasites, intracellular amastigote IC50 value determination is necessary to understand the clinical relevance of the 10 antileishmanial peptide drug candidates.

In data set [4] the test system is axenic amastigotes. To be noted: previous data used to set the 20 μM screening concentration; read-out: IC50 of enterocin AS-48 (previous data); cited from earlier work. Here is the method:
We utilized a previously developed high-throughput screening assay using transgenic axenic amastigotes expressing a red fluorescent protein, mCherry. Changes in mCherry fluorescence were normalized to 50 μM miltefosine in order to quantify parasite inhibition ([52]). In total, 5 scaffold 25-mer peptides and 475 synthetic 25-mer peptide variants were screened (Fig. 1). […] The assa ... || In this work, we determined the efficacy and cytotoxicity of 480 synthetic, minimal AS-48 bacteriocin homolog peptide variants against L. donovani using phenotypic in vitro fluorometric assays. […] This study illustrates the successful use of rational design using the minimal domain of naturally occurring bacteriocin scaffolds to increase leishmanicidal activity.

The test system of data set [5] is Leishmania pifanoi axenic amastigotes. The following applies: full-length enterocin AS-48; read-out: IC50 against Leishmania pifanoi axenic amastigotes; cited from earlier work. An excerpt:
Enterocin AS-48, a class I bacteriocin, has been well characterized and is currently being investigated for use as an antimicrobial drug against a large variety of infectious disease agents ([45]). Enterocin AS-48 is a ribosomally produced, circularized bacteriocin encoded by Enterococcus faecalis subsp. liquefaciens strain S-48, which undergoes head-to-tail macrocyclization as a posttranslational modification ([46]). Efforts to engineer synthetic enterocin AS-48 have been made in order to improve mass production and bioactivity. Previously, segments of the bacteriocin have undergone α-ketoaci ...

As for `CCCCCCCCCCCCCCCCOP(=O)([O-])OCC[N+](C)(C)C` [miltefosine], in data set [1], the Intracellular parasite inhibition is 99%. Moreover, the “Parasite inhibition (axenic amastigotes)” value in data set [2] was 99%.
In the case of enterocin AS-48, the “Activity against intracellular amastigotes” value in data set [3] is “limited activity”. The IC50 (usually the concentration needed to halve the response being measured) in data set [4] was roughly 20 µM; in data set [5] it was 10.2 ± 1.2 µM.
